Results on 2 molecules are retold here after patent US20200323212A1, “PEST CONTROL COMPOSITION AND USE OF SAME” (SUMITOMO CHEMICAL COMPANY, LIMITED, priority 2017, published 2020).

The subject of the data set is ticks. The data set is described as follows: Vial contact test, tick mortality after 48 hours (Test Examples 11, 14, 15). The format is in vivo.

Protocol: The Colby's calculation equation is shown as Equation 1 below.
E=X+Y−X×Y/100 (Equation 1)
Zero point two (0.2) mL of the solution was dropped to a 20 mL volume of vial, and the inner wall of the vial was coated homogeneously with the chemicals, and air-dried. Thereafter, ten ticks were released in the vial, and the vials were sealed with a lid. After 48 hours, the number of died ticks were examined, and the mortality (%) was calculated by the following equation 2. The three repetitions of each application dose were conducted.
Mortality (%)=(Number of dead pests/Number of supplied pests)×100 (Equation 2)
Zero point two (0.2) mL of the solution was dropped to a 20 mL volume of a vial, and the inner wall of the vial was coated homogeneously with the chemicals, and air-dried. Thereafter, ten ticks were released in the vial, and the vials were sealed with a lid. After 48 hours, the number of died ticks were examined, and the mortality (%) was calculated by the following equation 5. The three repetitions of each application dose were conducted.
Mortality (%)=(Number of dead pests/Number of supplied pests)×100 (Equation 5)
Zero point two (0.2) mL of the solution was dropped to a 20 mL volume of a vial, and the inner wall of the vial was coated homogeneously with the chemicals, and air-dried. Thereafter, ten ticks were released in the vial, and the vials were sealed with a lid. After 48 hours, the number of died ticks were examined, and the mortality (%) was calculated by the following equation 6. The three repetitions of each application dose were conducted.
Mortality (%)=(Number of dead pests/Number of supplied pests)×100 (Equation 6)

On to `CCN(CC)C(=O)c1cccc(C)c1` [N,N-diethyl-m-toluamide], for which the “Mortality (Measured value)” value (N,N-diethyl-m-toluamide alone 10 mg/m^2) turned out to be 40% and the “Mortality (Measured value)” value (N,N-diethyl-m-toluamide alone 20 mg/m^2) was found to be 50%.
Regarding `CCC(C)OC(=O)N1CCCCC1CCO` (stereo not drawn) [sec-butyl=2-(2-hydroxyethyl)piperidine-1-carboxylate], the “Mortality (Measured value)” value (sec-butyl=2-(2-hydroxyethyl)piperidine-1-carboxylate alone 10 mg/m^2) is given as 70%.
